Legend:
[1] = molecular target: T1, IGF-1R (Homo sapiens, UniProt P08069); assay: Cellular IGF-1R assay: capture ELISA (MSD) of receptor phosphorylation in Hek293 cells; type: cell-based; conditions: Hek293-IGF1R cells, 1 h pre-incubation, 10 min IGF stimulation, pIGF1R capture ELISA
T1 construct: expressed in transfected cells; host or cells: Hek293 (Hek293-IGF1R)
In short: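 IC50 from 4-parameter fit of IGF1R phosphorylation, normalised to IGF-stimulated and unstimulated controls, measured by MSD capture ELISA on lysates. Hek293-IGF1R cells in starvation medium got compound 1 h (top 10 μM, 3-fold steps, 0.1% DMSO) before a 10 min pulse of 1.0 ng/μL IGF.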

[2] = In vitro metabolic identification study with rat liver microsomes; type: in vitro ADME; conditions: for formation of the phenolic metabolite X / metabolic stability relative to ex.102 of WO02/092559: rat and human liver microsomes; for Relative peak area after incubation, Parent / Relative peak area after incubation, Phenol metabolite X: rat liver microsomes, 1 hour incubation, parent 5 μM
Experimental: (§1) In vitro metabolic identification studies with, Example 2 and Example 3 with human and rat liver microsomes are summarized in the table below in which the compounds were incubated for 1 hour with rat or human liver microsome preparations.
(§2) The metabolism of unlabelled compound was examined following in vitro incubations with liver microsomes from rat and human. The samples were analyzed by capillary-HPLC/MS^(n) and screened for potential metabolites of the compound.

[3] = In vitro metabolic identification study with human liver microsomes; type: in vitro ADME; conditions: 1 hour incubation, parent 5 μM
Experimental: as §1, §2

[4] = molecular target: InsR (Homo sapiens, UniProt P06213); assay: Kinase activity test, parent compound vs phenol metabolite X; type: biochemical
[5] = molecular target: C-Abl (Homo sapiens, UniProt P00519); assay: as above; type: biochemical
Description: (§3) In this tests, the parent compound, ex.102 of […] is compared with the corresponding phenol metabolite.

[6] = molecular target: T2, EphB4 (Homo sapiens, UniProt P54760); assay: as above; type: biochemical
T2 sequence (P54760 16-987): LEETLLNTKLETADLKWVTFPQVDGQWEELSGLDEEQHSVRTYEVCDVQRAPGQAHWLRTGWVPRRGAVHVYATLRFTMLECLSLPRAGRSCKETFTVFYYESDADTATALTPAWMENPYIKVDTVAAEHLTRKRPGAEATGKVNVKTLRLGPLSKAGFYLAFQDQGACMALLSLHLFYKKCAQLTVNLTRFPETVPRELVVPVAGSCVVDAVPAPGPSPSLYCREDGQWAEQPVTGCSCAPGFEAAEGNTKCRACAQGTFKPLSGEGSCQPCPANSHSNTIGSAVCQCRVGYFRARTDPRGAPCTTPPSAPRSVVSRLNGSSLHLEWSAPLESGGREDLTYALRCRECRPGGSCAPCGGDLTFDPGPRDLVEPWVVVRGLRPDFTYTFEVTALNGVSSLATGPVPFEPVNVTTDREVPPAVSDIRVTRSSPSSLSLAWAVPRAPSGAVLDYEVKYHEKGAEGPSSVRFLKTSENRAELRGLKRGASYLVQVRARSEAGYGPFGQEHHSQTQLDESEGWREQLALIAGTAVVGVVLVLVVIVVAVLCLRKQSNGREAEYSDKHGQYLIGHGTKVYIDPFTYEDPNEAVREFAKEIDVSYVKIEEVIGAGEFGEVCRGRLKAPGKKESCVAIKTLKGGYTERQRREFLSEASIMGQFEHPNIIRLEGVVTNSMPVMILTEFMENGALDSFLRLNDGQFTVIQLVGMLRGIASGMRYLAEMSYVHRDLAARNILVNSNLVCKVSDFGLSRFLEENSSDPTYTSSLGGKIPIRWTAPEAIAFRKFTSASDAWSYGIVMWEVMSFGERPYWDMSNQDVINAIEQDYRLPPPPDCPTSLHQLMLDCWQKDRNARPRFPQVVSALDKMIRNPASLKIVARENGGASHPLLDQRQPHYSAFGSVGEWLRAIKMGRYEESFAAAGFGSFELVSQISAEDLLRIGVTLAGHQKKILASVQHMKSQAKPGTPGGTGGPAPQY
Description: as §3

[7] = molecular target: RET (Homo sapiens, UniProt P07949); assay: as above; type: biochemical
Description: as §3

[8] = molecular target: c-src (Homo sapiens, UniProt P12931); assay: as above; type: biochemical
Description: as §3

T1 sequence (P08069 31-1367): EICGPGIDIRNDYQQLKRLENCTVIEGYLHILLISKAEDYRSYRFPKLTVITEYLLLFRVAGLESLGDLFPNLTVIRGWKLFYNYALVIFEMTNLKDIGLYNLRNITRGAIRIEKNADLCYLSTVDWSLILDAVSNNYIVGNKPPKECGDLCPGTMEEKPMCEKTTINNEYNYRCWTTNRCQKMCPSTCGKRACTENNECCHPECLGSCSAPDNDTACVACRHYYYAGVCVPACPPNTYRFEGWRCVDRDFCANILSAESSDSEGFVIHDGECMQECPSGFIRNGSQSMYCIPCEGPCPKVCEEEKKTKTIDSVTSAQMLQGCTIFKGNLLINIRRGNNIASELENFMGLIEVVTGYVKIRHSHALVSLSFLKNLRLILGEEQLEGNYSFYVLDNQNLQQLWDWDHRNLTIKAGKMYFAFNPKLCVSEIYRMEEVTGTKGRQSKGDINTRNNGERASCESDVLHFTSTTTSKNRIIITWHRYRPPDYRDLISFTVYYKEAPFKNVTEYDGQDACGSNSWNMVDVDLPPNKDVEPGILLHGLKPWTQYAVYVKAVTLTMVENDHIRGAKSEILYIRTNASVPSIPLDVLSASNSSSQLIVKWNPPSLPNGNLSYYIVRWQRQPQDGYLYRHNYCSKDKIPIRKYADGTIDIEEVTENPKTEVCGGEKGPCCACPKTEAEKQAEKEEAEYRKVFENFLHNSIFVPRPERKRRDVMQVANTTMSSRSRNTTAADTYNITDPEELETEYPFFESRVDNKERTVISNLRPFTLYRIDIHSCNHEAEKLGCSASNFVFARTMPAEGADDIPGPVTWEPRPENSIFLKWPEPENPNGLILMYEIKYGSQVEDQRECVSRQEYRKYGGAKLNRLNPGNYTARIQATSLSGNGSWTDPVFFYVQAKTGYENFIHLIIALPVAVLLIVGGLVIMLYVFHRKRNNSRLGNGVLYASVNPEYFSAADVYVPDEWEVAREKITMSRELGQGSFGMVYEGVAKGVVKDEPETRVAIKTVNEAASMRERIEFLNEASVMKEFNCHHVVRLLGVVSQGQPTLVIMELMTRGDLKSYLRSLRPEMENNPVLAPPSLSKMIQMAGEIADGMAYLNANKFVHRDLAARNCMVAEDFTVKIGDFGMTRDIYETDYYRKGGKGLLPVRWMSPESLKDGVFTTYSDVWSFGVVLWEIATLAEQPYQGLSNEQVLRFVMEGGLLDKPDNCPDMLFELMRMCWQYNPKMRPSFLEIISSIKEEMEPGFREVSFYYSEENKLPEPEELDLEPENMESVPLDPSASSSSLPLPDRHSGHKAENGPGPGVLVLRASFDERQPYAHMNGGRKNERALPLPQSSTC
Sequence of C-Abl (P00519 whole entry): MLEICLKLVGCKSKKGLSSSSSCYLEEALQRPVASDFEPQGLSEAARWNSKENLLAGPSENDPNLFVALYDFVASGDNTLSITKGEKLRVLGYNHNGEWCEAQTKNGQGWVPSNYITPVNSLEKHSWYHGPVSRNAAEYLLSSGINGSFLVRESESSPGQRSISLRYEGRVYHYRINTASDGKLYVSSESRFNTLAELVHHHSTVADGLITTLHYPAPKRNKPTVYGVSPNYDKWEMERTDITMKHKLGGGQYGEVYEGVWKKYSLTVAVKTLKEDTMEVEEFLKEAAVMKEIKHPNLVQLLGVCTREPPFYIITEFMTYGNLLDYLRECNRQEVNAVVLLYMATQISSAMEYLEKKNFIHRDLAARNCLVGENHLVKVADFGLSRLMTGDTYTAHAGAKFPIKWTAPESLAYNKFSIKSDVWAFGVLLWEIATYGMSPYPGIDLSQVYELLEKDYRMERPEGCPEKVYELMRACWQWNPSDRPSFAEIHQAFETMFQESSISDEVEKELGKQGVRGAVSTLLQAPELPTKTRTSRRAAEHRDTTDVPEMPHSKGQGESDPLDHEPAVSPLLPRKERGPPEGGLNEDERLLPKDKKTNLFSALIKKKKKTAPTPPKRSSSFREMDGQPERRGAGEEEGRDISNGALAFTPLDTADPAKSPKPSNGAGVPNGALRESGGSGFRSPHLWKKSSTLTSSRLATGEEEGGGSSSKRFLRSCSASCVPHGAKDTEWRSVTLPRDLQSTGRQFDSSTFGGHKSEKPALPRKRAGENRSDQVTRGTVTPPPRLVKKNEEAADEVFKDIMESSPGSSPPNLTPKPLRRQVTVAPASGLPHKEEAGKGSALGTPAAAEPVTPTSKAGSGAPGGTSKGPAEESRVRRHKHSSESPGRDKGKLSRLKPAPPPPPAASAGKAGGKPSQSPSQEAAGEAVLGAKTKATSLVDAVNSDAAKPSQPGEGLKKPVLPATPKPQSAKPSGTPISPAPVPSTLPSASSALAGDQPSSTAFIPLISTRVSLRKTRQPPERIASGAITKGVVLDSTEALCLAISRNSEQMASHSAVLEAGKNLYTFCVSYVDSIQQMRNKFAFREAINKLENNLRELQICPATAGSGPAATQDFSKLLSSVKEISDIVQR
Sequence of c-src (P12931 whole entry, species assumed): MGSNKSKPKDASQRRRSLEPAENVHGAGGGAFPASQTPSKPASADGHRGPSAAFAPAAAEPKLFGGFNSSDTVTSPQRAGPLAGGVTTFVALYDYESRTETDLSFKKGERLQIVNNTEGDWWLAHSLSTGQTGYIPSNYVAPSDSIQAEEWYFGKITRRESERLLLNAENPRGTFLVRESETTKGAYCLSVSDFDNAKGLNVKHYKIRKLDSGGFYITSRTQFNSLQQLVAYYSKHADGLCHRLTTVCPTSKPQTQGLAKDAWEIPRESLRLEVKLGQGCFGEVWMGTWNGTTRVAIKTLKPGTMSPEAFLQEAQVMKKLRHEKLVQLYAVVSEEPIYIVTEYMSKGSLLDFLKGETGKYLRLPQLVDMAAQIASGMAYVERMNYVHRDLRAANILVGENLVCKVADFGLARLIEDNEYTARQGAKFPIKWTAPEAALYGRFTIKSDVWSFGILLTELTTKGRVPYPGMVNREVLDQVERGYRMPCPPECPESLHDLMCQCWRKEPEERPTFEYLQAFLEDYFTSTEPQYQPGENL
Sequence of InsR (P06213 28-1382, species assumed): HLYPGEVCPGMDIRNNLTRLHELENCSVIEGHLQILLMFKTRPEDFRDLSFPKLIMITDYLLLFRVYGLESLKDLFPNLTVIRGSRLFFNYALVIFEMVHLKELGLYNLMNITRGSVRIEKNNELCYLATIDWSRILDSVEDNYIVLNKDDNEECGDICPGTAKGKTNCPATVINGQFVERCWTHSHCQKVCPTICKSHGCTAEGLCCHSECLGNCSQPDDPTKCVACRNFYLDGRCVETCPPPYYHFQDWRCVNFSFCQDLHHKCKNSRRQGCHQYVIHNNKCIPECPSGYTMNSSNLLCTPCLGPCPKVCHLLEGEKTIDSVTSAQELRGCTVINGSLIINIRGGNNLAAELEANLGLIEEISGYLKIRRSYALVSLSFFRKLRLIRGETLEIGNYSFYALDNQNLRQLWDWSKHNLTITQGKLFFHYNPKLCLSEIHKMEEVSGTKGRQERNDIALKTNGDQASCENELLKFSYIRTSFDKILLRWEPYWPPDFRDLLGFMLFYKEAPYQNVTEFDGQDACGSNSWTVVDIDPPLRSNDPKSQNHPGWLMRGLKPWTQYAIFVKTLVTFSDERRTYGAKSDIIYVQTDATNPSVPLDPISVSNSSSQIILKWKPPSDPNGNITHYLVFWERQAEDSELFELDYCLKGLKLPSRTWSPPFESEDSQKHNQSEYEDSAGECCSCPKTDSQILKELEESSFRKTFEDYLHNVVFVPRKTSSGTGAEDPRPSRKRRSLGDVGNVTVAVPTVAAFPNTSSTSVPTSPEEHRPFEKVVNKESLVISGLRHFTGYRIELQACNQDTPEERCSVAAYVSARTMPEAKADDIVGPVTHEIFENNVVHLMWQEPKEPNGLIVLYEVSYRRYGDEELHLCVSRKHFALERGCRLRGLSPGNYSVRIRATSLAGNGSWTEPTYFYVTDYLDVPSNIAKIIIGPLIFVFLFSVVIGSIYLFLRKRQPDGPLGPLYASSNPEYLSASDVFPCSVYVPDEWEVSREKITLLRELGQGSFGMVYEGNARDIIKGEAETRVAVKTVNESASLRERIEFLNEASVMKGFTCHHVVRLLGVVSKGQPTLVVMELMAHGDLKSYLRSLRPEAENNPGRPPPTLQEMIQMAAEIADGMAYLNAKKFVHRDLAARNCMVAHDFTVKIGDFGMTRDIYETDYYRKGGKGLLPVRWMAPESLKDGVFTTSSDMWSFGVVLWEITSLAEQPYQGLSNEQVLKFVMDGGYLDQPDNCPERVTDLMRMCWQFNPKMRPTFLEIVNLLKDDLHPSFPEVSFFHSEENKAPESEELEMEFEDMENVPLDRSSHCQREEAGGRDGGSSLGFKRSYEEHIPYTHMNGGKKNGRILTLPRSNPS

Nc1ncnc2c1c(-c1cccc(OC[C@@H]3CCCCO3)c1)cn2[C@H]1C[C@@H](CN2CCC2)C1 (single isomer, unassigned) [Example 3]
IC50 [1]: 105 to 141 nM | formation of the phenolic metabolite X [2]: no evidence of formation | metabolic stability relative to ex.102 of WO02/092559 [2]: Greater metabolic stability | Relative peak area after incubation, Parent [2]: 75.8% | Relative peak area after incubation, Phenol metabolite X [2]: not detected | Relative peak area after incubation, Parent [3]: 81.7% | Relative peak area after incubation, Phenol metabolite X [3]: not detected

Nc1ncnc2c1c(-c1cccc(OC[C@H]3CCCCO3)c1)cn2[C@H]1C[C@@H](CN2CCC2)C1 (single isomer, unassigned) [Example 2]
IC50 [1]: 51 to 99 nM | formation of the phenolic metabolite X [2]: no evidence of formation | metabolic stability relative to ex.102 of WO02/092559 [2]: Greater metabolic stability | Relative peak area after incubation, Parent [2]: 69.3% | Relative peak area after incubation, Phenol metabolite X [2]: not detected | Relative peak area after incubation, Parent [3]: 90.3% | Relative peak area after incubation, Phenol metabolite X [3]: not detected

Nc1ncnc2c1c(-c1cccc(O)c1)cn2[C@H]1C[C@@H](CN2CCC2)C1 [Phenol metabolite X, cis-3-[4-amino-7-(3-azetidin-1-ylmethyl-cyclobutyl)-7H-pyrrolo[2,3-d]pyrimidin-5-yl]-phenol]
IC50 [4]: 3800 nM | IC50 [5]: 47 nM | IC50 [6]: 9 nM | IC50 [7]: 8 nM | IC50 [8]: 4 nM

CN1CCN([C@H]2C[C@@H](c3nc(-c4cccc(OCC56CCC(CC5)O6)c4)c4c(N)nccn43)C2)CC1 [Example 181]
IC50 [1]: 47 nM

Nc1ncnc2c1c(-c1cccc(OCC34CCC(CC3)O4)c1)cn2[C@H]1CC[C@@H](CN2CC[C@@H](O)C2)CC1 [Example 124]
IC50 [1]: 25 nM

Nc1ncnc2c1c(-c1cccc(OCC3CCCCO3)c1)cn2[C@H]1C[C@@H](CN2CCCC2C(=O)O)C1 (relative stereo) [Example 92, 1-(cis-3-{4-amino-5-[3-(tetrahydro-pyran-2-ylmethoxy)-phenyl]-pyrrolo[2,3-d]pyrimidin-7-yl}-cyclobutylmethyl)-pyrrolidine-2-carboxylic acid]
IC50 [1]: 559 nM

Nc1ncnc2c1c(-c1cccc(OCC34CCC(CC3)O4)c1)cn2[C@H]1C[C@@H](CN2C3CCC2CC(O)C3)C1 (stereo partly drawn) [Example 185, 8-(cis-3-{4-Amino-5-[3-(7-oxa-bicyclo[2.2.1]hept-1-ylmethoxy)-phenyl]-pyrrolo[2,3-d]pyrimidin-7-yl}-cyclobutylmethyl)-8-aza-bicyclo[3.2.1]octan-(3-exo)-ol]
IC50 [1]: 6 nM

Nc1ncnc2c1c(-c1cccc(OCC34CCC(CC3)O4)c1)cn2[C@H]1CC[C@@H](n2ccnc2)CC1 [Example 138, 7-((1S,4S)-4-(1H-imidazol-1-yl)cyclohexyl)-5-(3-(7-oxabicyclo[2.2.1]heptan-1-ylmethoxy)phenyl)-7H-pyrrolo[2,3-d]pyrimidin-4-amine]
IC50 [1]: 241 nM

Nc1ncnc2c1c(-c1cccc(OCC3CCCCO3)c1)cn2[C@H]1C[C@H](CN2CC(O)C2)C1 (relative stereo) [Example 36, 1-(trans-3-{4-amino-5-[3-(tetrahydro-pyran-2-ylmethoxy)-phenyl]pyrrolo[2,3-d]pyrimidin-7-yl}-cyclobutylmethyl)-azetidin-3-ol]
IC50 [1]: 372 nM

CN1CCC(N2CC[C@@H](n3cc(-c4cccc(OCC56CCC(CC5)O6)c4)c4c(N)ncnc43)C2)CC1 [Example 216, 7-[(R)-1-(1-Methyl-piperidin-4-yl)-pyrrolidin-3-yl]-5-[3-(7-oxa-bicyclo[2.2.1]hept-1-ylmethoxy)-phenyl]-7H-pyrrolo[2,3-d]pyrimidin-4-ylannine]
IC50 [1]: 80 nM

— patent US20120165310A1, “ETHER DERIVATIVES OF BICYCLIC HETEROARYLS” (NOVARTIS AG, priority 2009, published 2012)
